# Test results taken from patent US9657014B2, “Substituted 1,6-naphthyridines” (Hoffmann-La Roche Inc., priority 2012, dated 2017).
# Test system: human embryonic stem cell derived neural stem cells (NSCs)
# Test: Neural stem cell proliferation assay (neurogenesis assay)
# Assay type: cell-based
# Conditions: Homo sapiens, Neural stem cell, 96 h; Table 1, novel compounds; concentration at which 150% activity of control (100%) is reached; ATP levels (CellTiterGlo) after 4 days incubation
# Method: Neural Stem Cell Proliferation Assay
# Neurogenic properties of small molecules are determined based on the proliferation of human embryonic stem cell derived neural stem cells (NSCs) which were derived via a dual smad inhibition as previously described (Chambers, S. M., et al., Highly efficient neural conversion of human ES and iPS cells by dual inhibition of SMAD signaling, Nature biotechnology, 2009. 27 (3): p. 275-80.)
# Compounds respond is measured by the increase in cells based on ATP levels (Promega:CellTiterGlo®) after an incubation period of 4 days.
# NSCs are thawed and expanded over 3 passages. On the 14th day, NSCs are seeded in Polyornithin/Laminin coated 384 well plates at a cell density of 21,000 cells/cm^2 in a media volume of 38 μl.
# 4 hours after cell seeding, compound solutions are added at a volume of 2 μl. Stock solutions of the compounds (water, 5% DMSO) are diluted to obtain a dose response (11 points, dilution factor is 2), ranging from 8 μM to 8 nM. Controls are run to consistently determine the neurogenic properties of the cells:
# Negative (neutral) control is cell culture Media (final DMSO concentration: 0.25%).
# Positive controls are: • 1. cell culture Media+100 ng/ml FGF2 (final DMSO concentration: 0.1%) • 2. cell culture Media+20 ng/ml EGF (final DMSO concentration: 0.1%) • 3. cell culture Media+100 ng/ml Wnt3a (final DMSO concentration: 0.1%)
# After 4 days incubation at 37° C., 5% CO2, the amount of ATP per well is quantified. The ATP concentration is proportional to the cell number. ATP is quantified by using the Promega CellTiterGlo® kit. The CellTiterGlo® reagents contain a cell lysis buffer, a thermo stable luciferase (UltraGlo™ recombinant luciferase), magnesium and luciferin. Luciferin reacts with ATP producing oxyluciferin, AMP and light. The luminescence signal is proportional to the ATP content.
# The value of negative (neutral) control is determined for each assay plate by taking the average of 16 negative control wells. The neurogenic compound response is calculated for each compound as (compound/Negative Control)*100.
# The values of EC150 from the dose response curve are determined for each test compound. The EC150 is the compound concentration at which 150% activity of control (100%) is reached.
row,SMILES,EC (150% of control)
1,"CC(NC(=O)c1ccc2cncc(-c3cccc(Cl)n3)c2n1)C(C)(C)O (centres unmarked) [Example 175, 8-(6-Chloropyridin-2-yl)-N-(3-hydroxy-3-methylbutan-2-yl)-1,6-naphthyridine-2-carboxamide]",1.03 µM
2,"Cn1cc(NC(=O)c2ccc3cncc(-c4ccc(Cl)cc4)c3n2)cn1 [Example 55, 8-(4-Chlorophenyl)-N-(1-methyl-1H-pyrazol-4-yl)-1,6-naphthyridine-2-carboxamide]",0.25 µM
3,"CC(C)(C)CNC(=O)c1ccc2cncc(-c3ccc(F)c(F)c3)c2n1 [Example 121, 8-(3,4-Difluorophenyl)-N-neopentyl-1,6-naphthyridine-2-carboxamide]",0.26 µM
4,"NC(=O)c1ccc2cncc(N3CCOCC3)c2n1 [Example 142, 8-Morpholino-1,6-naphthyridine-2-carboxamide]",0.94 µM
5,"COc1ccc(-c2cncc3ccc(C(=O)NCCCn4nc(C)cc4C)nc23)cc1 [Example 42, N-(3-(3,5-Dimethyl-1H-pyrazol-1-yl)propyl)-8-(4-methoxyphenyl)-1,6-naphthyridine-2-carboxamide]",0.25 µM
6,"COCCNC(=O)c1ccc2cncc(-c3ccccc3OC)c2n1 [Example 5, N-(2-Methoxyethyl)-8-(2-methoxyphenyl)-1,6-naphthyridine-2-carboxamide]",0.26 µM
7,"O=C(NCCCn1ccnc1)c1ccc2cncc(C3=CCOCC3)c2n1 [Example 43, N-(3-(1H-Imidazol-1-yl)propyl)-8-(3,6-dihydro-2H-pyran-4-yl)-1,6-naphthyridine-2-carboxamide]",2.68 µM
8,"COc1ccccc1-c1cncc2ccc(C(=O)NCc3ccncc3)nc12 [Example 27, 8-(2-Methoxyphenyl)-N-(pyridin-4-ylmethyl)-1,6-naphthyridine-2-carboxamide]",0.56 µM
9,"CC(NC(=O)c1ccc2cncc(-c3ccc(F)cc3F)c2n1)c1ccc(S(C)(=O)=O)cc1 (centres unmarked) [Example 110, 8-(2,4-Difluorophenyl)-N-(1-(4-(methylsulfonyl)phenyl)ethyl)-1,6-naphthyridine-2-carboxamide]",0.49 µM
10,"CN(C)c1cc(-c2cncc3ccc(C(N)=O)nc23)ccn1 [Example 140, 8-(2-(Dimethylamino)pyridin-4-yl)-1,6-naphthyridine-2-carboxamide]",0.147 µM
11,"O=C(NCc1ccncc1)c1ccc2cncc(-c3ccncc3)c2n1 [Example 32, 8-(Pyridin-4-yl)-N-(pyridin-4-ylmethyl)-1,6-naphthyridine-2-carboxamide]",0.29 µM
12,"O=C(NCc1ccccc1)c1ccc2cncc(-c3ccncc3)c2n1 [Example 16, N-Benzyl-8-(pyridin-4-yl)-1,6-naphthyridine-2-carboxamide]",0.04 µM
13,"CC(NC(=O)c1ccc2cncc(-c3ccc(Cl)c(F)c3)c2n1)C(C)(C)O (centres unmarked) [Example 170, 8-(4-Chloro-3-fluorophenyl)-N-(3-hydroxy-3-methylbutan-2-yl)-1,6-naphthyridine-2-carboxamide]",0.25 µM
14,"COc1ccc(-c2cncc3ccc(C(=O)N(C)Cc4ccccc4)nc23)cc1 [Example 33, N-Benzyl-8-(4-methoxyphenyl)-N-methyl-1,6-naphthyridine-2-carboxamide]",0.22 µM
15,"CS(=O)(=O)CCNC(=O)c1ccc2cncc(-c3ccccc3F)c2n1 [Example 133, 8-(2-Fluorophenyl)-N-(2-(methylsulfonyl)ethyl)-1,6-naphthyridine-2-carboxamide]",0.23 µM
16,"CS(=O)(=O)CCNC(=O)c1ccc2cncc(-c3ccc(Cl)cc3F)c2n1 [Example 139, 8-(4-Chloro-2-fluorophenyl)-N-(2-(methylsulfonyl)ethyl)-1,6-naphthyridine-2-carboxamide]",0.06 µM

# Same assay, conditions: Homo sapiens, Neural stem cell, 96 h; Table 2, known compounds; concentration at which 150% activity of control (100%) is reached; ATP levels (CellTiterGlo) after 4 days incubation
row,SMILES,EC (150% of control)
1,"COc1ccc(-c2cncc3ccc(C(=O)N4CCN(Cc5nc(OC)cc(OC)n5)CC4)nc23)cc1 [Example 187, [4-(4,6-Dimethoxy-pyrimidin-2-ylmethyl)-piperazin-1-yl]-[8-(4-methoxy-phenyl)-[1,6]naphthyridin-2-yl]-methanone]",0.71 µM
